Tests used:
[1] = test system: S. aureus ATCC 33591 (MRSA); assay: MIC against resistant strains, Tables 5a-5d; format: cell-based; conditions: Staphylococcus aureus, n = 3
Method: (§1) Compounds described herein were evaluated for growth inhibition against a variety of bacterial species, including strains that have developed resistance to common antibacterial treatments, according to the procedure described herein, or by analogous procedures known to those skilled in the art. Resistant bacterial strains used for compound testing include methicillin-resistant S. aureus (MRSA), vancomycin resistant Enterococci (VRE) and various multi-drug resistant (MDR) strains commonly associated with hospital-acquired (nosocomial) infections, including, but not limited to A. baumannii, K. pnuemoniae, and E. cloacae.

[2] = test system: P. aeruginosa 1674623 (MDR); assay: MIC against resistant strains, Tables 5a-5d; format: cell-based; conditions: Pseudomonas aeruginosa, n = 3
Method: as §1

[3] = test system: A. baumannii 1674627 (MDR); assay: MIC against resistant strains, Tables 5a-5d; format: cell-based; conditions: Acinetobacter baumannii, n = 3
Method: as §1

[4] = test system: E. cloacae 1744299 (ESBL); assay: MIC against resistant strains, Tables 5a-5d; format: cell-based; conditions: Enterobacter cloacae, n = 3
Method: as §1

[5] = test system: S. aureus ATCC BAA-1717 (MRSA); assay: MIC against resistant strains, Tables 5a-5d; format: cell-based; conditions: Staphylococcus aureus, n = 3
Method: as §1

[6] = test system: E. coli ATCC25922 (WT); assay: MIC against resistant strains, Tables 5a-5d; format: cell-based; conditions: Escherichia coli, n = 3
Method: as §1

[7] = test system: K. pneumoniae ATCC BAA-2473 (MDR); assay: MIC against resistant strains, Tables 5a-5d; format: cell-based; conditions: Klebsiella pneumoniae, ATCCBAA2473, n = 3
Method: as §1

[8] = test system: P. aeruginosa CDC0248 (MDR); assay: MIC against resistant strains, Tables 5a-5d; format: cell-based; conditions: Pseudomonas aeruginosa, n = 3
Method: as §1

[9] = test system: E. faecium 1674620 (VRE); assay: MIC against resistant strains, Tables 5a-5d; format: cell-based; conditions: Enterococcus faecium, n = 3
Method: as §1

[10] = test system: A. baumannii CDC0290 (MDR); assay: MIC against resistant strains, Tables 5a-5d; format: cell-based; conditions: Acinetobacter baumannii, n = 3
Method: as §1

[11] = test system: K. pneumoniae CDC0010 (MDR); assay: MIC against resistant strains, Tables 5a-5d; format: cell-based; conditions: Klebsiella pneumoniae, n = 3
Method: as §1

[12] = test system: Hep G2 cells; assay: Cytotoxicity tested by Eurofins Pharma Discovery Services; format: cell-based; conditions: Homo sapiens, HepG2; Hep G2; data provided by Eurofins; read-out: IC50
[13] = test system: E. coli K12 (ATCC 47076); assay: MIC broth microdilution method, Table 3; conditions: Escherichia coli, ATCC47076
[14] = test system: J774 (ATCC TIB-67) cells; assay: Cytotoxicity, MTT assay; format: cell-based; conditions: Mus musculus, MTT, 24 hours incubation, read-out: IC50
Summary of the method: (§2)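 Cells seeded at 5000/well (NIH 3T3) or 10000/well (Hep G2, J774, RAW264.7) in DMEM+10% FBS, incubated overnight, then exposed 24 h to 2-fold serial dilutions (9 concentrations, six replicates each). MTT added for 4 h, formazan dissolved in DMSO, A570 read. Viability expressed as blank-corrected absorbance relative to medium-only control.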

[15] = test system: Hep G2 (ATCC HB-8065) cells; assay: Cytotoxicity, MTT assay; format: cell-based; conditions: Homo sapiens, HepG2, 24 h, Hep G2; MTT, 24 hours incubation; read-out: IC50
Summary of the method: as §2

SMILES	MIC [1]	MIC [2]	MIC [3]	MIC [4]	MIC [5]	MIC [6]	MIC [7]	MIC [8]	MIC [9]	MIC [10]	MIC [11]	IC50 [12]	MIC [13]	IC50 [14]	IC50 [15]
CCCCCC[N+](C)(C)CCCCCCOc1cc(/C=C/c2cc(OCCCCCC[N+](C)(C)CCCCCC)cc(OCCCCCC[N+](C)(C)CCCCCC)c2)cc(OCCCCCC[N+](C)(C)CCCCCC)c1 [Formula E]	0.5 µg/mL	8 µg/mL	4 µg/mL	2 µg/mL	0.5 µg/mL	1 µg/mL	2 µg/mL	8 µg/mL	0.25 µg/mL	4 µg/mL	4 µg/mL	5.6 µg/mL	4 µg/mL	2.5 µg/mL	7.3 µg/mL
C[N+](C)(C)CCCCOc1cc(/C=C/c2ccc(/C=C/c3cc(OCCCC[N+](C)(C)C)cc(OCCCC[N+](C)(C)C)c3)cc2)cc(OCCCC[N+](C)(C)C)c1.[I-].[I-].[I-].[I-] [Formula F]	2 µg/mL	> 64 µg/mL	64 µg/mL	8 µg/mL	2 µg/mL	8 µg/mL	32 µg/mL	> 64 µg/mL	8 µg/mL	64 µg/mL	64 µg/mL	> 324 µg/mL	32 µg/mL	> 128 µg/mL	> 1020 µg/mL

Reference: patent US11713318B2, “Short conjugated oligoelectrolytes and uses thereof” (The Regents Of The University Of California, priority 2018, dated 2023)
